Assay [1] is described as follows: Inhibition of Streptomyces hygroscopicus hyg5 expressed in Escherichia coli BL21(DE3) using chorismate as substrate after 5 mins by LDH-coupled spectrophotometric assay.
Assay [2] can be described thus: Competitive inhibition of Escherichia coli EntB expressed in Escherichia coli BL21(DE3) using chorismate as substrate.
Assay [3] in a line: Inhibition of Escherichia coli EntB expressed in Escherichia coli BL21(DE3) using chorismate as substrate after 5 mins by LDH-coupled spectrophotometric assay.
Assay [4] addresses T1, Chorismatase (Streptomyces hygroscopicus subsp. ascomyceticus, UniProt Q9KID9).
T1 sequence (Q9KID9 whole entry): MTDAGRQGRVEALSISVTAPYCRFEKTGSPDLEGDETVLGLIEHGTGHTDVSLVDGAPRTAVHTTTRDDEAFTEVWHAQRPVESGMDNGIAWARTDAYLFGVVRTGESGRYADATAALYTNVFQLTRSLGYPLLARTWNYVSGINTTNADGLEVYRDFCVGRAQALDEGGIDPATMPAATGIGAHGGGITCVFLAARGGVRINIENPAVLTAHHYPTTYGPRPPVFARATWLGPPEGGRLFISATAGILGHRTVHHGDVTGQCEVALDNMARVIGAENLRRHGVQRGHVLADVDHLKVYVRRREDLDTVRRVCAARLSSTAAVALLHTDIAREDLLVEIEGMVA
The assay can be described thus: Inhibition of Streptomyces hygroscopicus subsp. ascomyceticus chorismatase FkbO expressed in Escherichia coli BL21(DE3) using chorismate as substrate after 5 mins by LDH-coupled spectrophotometric assay.

Assay [5] addresses T1, Chorismatase. The assay can be described thus: Competitive inhibition of Streptomyces hygroscopicus subsp. ascomyceticus chorismatase FkbO expressed in Escherichia coli BL21(DE3) using chorismate as substrate.

For orientation: IC50 means the point on the concentration scale where inhibition reaches its midpoint. What is called Ki is a dissociation constant, usually derived from enzyme kinetics or from competition with a known ligand. A high value points to lower affinity. Turning to `O=C(O)/C=C/c1cccc(C(=O)O)c1`, the IC50 in assay [1] came out at 68500 µM; in assay [3], 209 µM; against Chorismatase [4], 45000 µM. The results for the Ki (in assay [2]; at Chorismatase [5]) were 122 µM and 19600 µM, respectively.

In the case of `O=C(O)CCc1cccc(C(=O)O)c1`, the IC50 in assay [1] was 1250 µM; in assay [3], 472 µM; against Chorismatase [4], 1090 µM. The Ki in assay [2] turned out to be 282 µM; at Chorismatase [5] it was 1020 µM.

Values taken from ChEMBL document CHEMBL2331082, “Cinnamic acid derivatives as inhibitors for chorismatases and isochorismatases” (Bioorg Med Chem Lett, 2013).
